In patent US20250325508A1, “MODULATORS OF PROTEASOME DYNAMICS AND/OR FUNCTION, COMPOSITIONS, METHODS, AND THERAPEUTIC USES THEREOF” (TECHNION RESEARCH & DEVELOPMENT FOUNDATION LIMITED, priority 2022, published 2025):

Key:
Assay type in all cases: cell-based, human
Ubiquitin conjugates = Ubiquitin conjugates levels (in-cell Western); details: stress, HeLa cells
Protocol: Cells were seeded in a 96-well plate at a density of 15,000 cells/well. ˜36 h later, cells were treated as described and were visualized live, using high-throughput fluorescence microscopy (IXM-C, Molecular Devices) under a controlled environment (21% O2, 5% CO2, 37° C.). Hoechst 33342 was used to stain nuclei of all cells, and SYTOX™ (Thermo) was used to stain dead cells. Data analysis was performed using the Live/Dead module of the MetaXpress software (Molecular Devices). […] For ubiquitination, the inventors used in-cell Western blotting using an anti-Ub-conj [O. Braten et al., Proc. Natl. Acad. Sci. 113, E4639-47 (2016), and a secondary fluorescent antibody. Intensities were quantified using Li-Cor imager and software (Odyssey).

proteasome = experiment: Mass spectrometric analysis of proteasome sub-complexes' composition (assembly); details: starvation plus substance
Protocol: Analysis of proteasome assembly and sub-complex composition was performed using the MCP20 antibody against the α6 proteasome subunit, as previously described using the MCP21 antibody against α2 [B. Fabre et al., Mol. Cell. Proteomics 12, 687-699 (2013)]. Briefly, following the indicated treatments, cell lysates were immunoprecipitated using the α6 antibody, and the precipitates were subjected to proteomic mass spectrometry. Intensities of the different proteasomal subunits were normalized according to the median of intensities measured for all 20S subunits. Ratios were calculated for each condition relative to untreated cells (control). The color scale represents Log 2 fold-change.

26S proteasome = experiment: Proteasome subcellular localization in cultured cells (immunofluorescence, cell fractionation/Western blot)
Protocol: Cells were incubated for 20 min in fractionation buffer [20 mM HEPES pH 7.3, 10 mM KCl, 5 mM ATP, 5 mM MgCl2, and protease inhibitor cocktail (Roche)], followed by the addition of Digitonin (0.01%). They were then mixed thoroughly and centrifuged at 1,000×g for 5 min. The supernatant was collected as cytosolic fraction, and the pellet was washed with fractionation buffer supplemented with NP-40 (0.05%) and centrifuged, and the pellet (nuclei) was resuspended in fractionation buffer supplemented with sodium deoxycholate (0.5%), followed by its sonication.
Cells were washed twice with ice cold PBS and scraped into lysis buffer (50 mM Tris-HCl, pH 7.4, 130 mM NaCl, 0.5% NP-40) supplemented with freshly added protease inhibitor cocktail, 5 mM ATP, 10 mM iodoacetamide, and 5 mM N-ethyl maleimide. Protein concentration was measured by the BCA assay according to the manufacturer's instructions (Pierce, Rockford, IL). 30 μg of cellular protein were resolved via SDS-PAGE, transferred to a nitrocellulose membrane and immunoblotted with the appropriate antibody.
Cells were seeded on glass cover slips for 36 h. Following the indicated treatments, they were fixed with 4% PFA for 15 min, washed with phosphate-buffered saline (PBS) and incubated in PBS containing 10% goat serum for 1 h at room temperature, followed by 2 h incubation with the indicated primary antibody. Following extensive wash with PBS, the fixed cells were incubated with the relevant secondary antibody for 1 h, washed and mounted. Images were acquired using Zeiss LSM 700 confocal microscope (Zeiss, Oberkochen, Germany). […]

autophagy = experiment: Autophagy (LC3 lipidation, RFP-GFP-LC3 autophagic flux); details: LC3 Western blot and GFP-RFP-LC3 autophagic flux, HeLa cells
Protocol: Cells were washed twice with ice cold PBS and scraped into lysis buffer (50 mM Tris-HCl, pH 7.4, 130 mM NaCl, 0.5% NP-40) supplemented with freshly added protease inhibitor cocktail, 5 mM ATP, 10 mM iodoacetamide, and 5 mM N-ethyl maleimide. Protein concentration was measured by the BCA assay according to the manufacturer's instructions (Pierce, Rockford, IL). 30 μg of cellular protein were resolved via SDS-PAGE, transferred to a nitrocellulose membrane and immunoblotted with the appropriate antibody. Cells stably expressing the fusion of RFP-GFP-LC3 were treated as described and were visualized live, using high-throughput fluorescence microscopy (IXM-C, Molecular Devices) under controlled environment (21% O2, 5% CO2, 37° C.). Analysis of autophagic flux was made based on the differential signal in the green and red channels, as previously described [[…], et al. (2009). Cell 136, 521-534] Due to the instability of GFP in acidic pH, only RFP retains its fluorescence in the acidic lysosome, while both are visible in the autophagosome. The RFP: GFP puncta ratio is indicating the extent of autophagy activation, or flux. The figure presents mean+/-SD and Student's T-Test p-values of three replicates.

## CCC(=C/[C@H](C)C/C=C/C(C)=C/[C@@H](C)C(=O)[C@@H](C)[C@H](O)[C@@H](C)C/C(C)=C/C(=O)O)/C=C/[C@@H]1OC(=O)C=C[C@@H]1C [Leptomycin B]
Ubiquitin conjugates
  degradation and depletion of ubiquitin adducts: inhibited degradation and depletion of ubiquitin adducts
proteasome
  effect of stress on proteasome assembly (20S and 19S sub-complexes): did not reverse the effect of stress on proteasome assembly
26S proteasome; amino acid starvation, substance added to starvation medium
  proteasome translocation from the nucleus to the cytosol: inhibition of the translocation
26S proteasome; non-stressed / well-fed cells, complete medium
  proteasome localization: nuclear accumulation of the proteasome
autophagy
  autophagy under starvation: not inhibited
